This note sets out measurements from patent US20120263849A1, “BITTERNESS SUPPRESSION METHOD” (KAO CORPORATION, priority 2010, published 2012).

A short description of this assay: Sensory test of bitterness, agent added to quinine sulfate standard solutions. In kind it is in vivo, people. As to conditions: summary of Tables 2 to 4 (quinine sulfate and catechin test solutions). On the procedure:
The bitterness suppression agent of the present invention may be applied to any substance without any particular limitation as long as the substance contains a bitter component. It is preferably applied to a composition having a bitterness having a bitterness intensity of 7 or less based on the quinine sulfate standard solution. […] More specifically, the bitterness intensity is determined by the following procedure. […] Then, the values of bitterness intensity determined by each subject are averaged out and provided as the bitterness intensity of the test substance. […]
Five subjects conducted a sensory test with reference to the bitterness level of each test solution using the quinine sulfate standard solutions shown in the following Table 1 as a standard, and an average score of the evaluation scores submitted by each subject was calculated. […]

On to `COC(=O)c1ccccc1O` [methyl salicylate], for which the “Suppression of bitterness (summary in words)” value is “effective suppression of bitterness without impairing the original taste and flavor”.
